Source: patent US10611750B2, “Tetrahydroquinoline compositions as bet bromodomain inhibitors” (FORMA Therapeutics, Inc., priority 2013, dated 2020)
Several values for one entry are separate records, joined by “and”; a condition that tells them apart may be missing. Equal entries are not always repeated.

Assays:
[1] = tested on: acute myelocytic leukemia (AML) cell line MV4-11; assay: Oncology cell growth assay (3-day proliferation, CellTiter-Glo); type: cell-based; conditions: Homo sapiens, MV4-11, 72 h, MV4-11 cells, 3000 cells/well, compounds listed under IC50 range headings, read-out: MV411 IC50 (gIC50, inhibition of proliferation)
Summary of the method: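 A 3-day proliferation test used MV4-11 cells seeded at 3000 per well with eight compound concentrations (10 μM top, 3-fold dilution) at 37° C in 5% CO2. CellTiter-Glo luminescence defined viable cell signal. A four-parameter logistic curve against DMSO and background wells gave the gIC50.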

[2] = target: T1, BRD4 Bromodomain 1 (BRD4 BD1) (Homo sapiens, UniProt O60885); assay: AlphaScreen binding assay, BRD4 BD1; conditions: His-tagged BRD4 BD1 50 nM, biotinylated H4 (1-21) K5/8/12/16 tetra-acetylated peptide 50 nM, compounds listed under IC50 range headings
T1 construct: 44-168 and BRD4 BD2
Summary of the method: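 An AlphaScreen competition format was used with His-BRD4 BD1 or BD2 and biotin-H4 K5/8/12/16-acetyl peptide, each at matched final levels of 50 nM (BD1) or 100 nM (BD2). Incubation in HEPES/NaCl buffer with 0.1% BSA and 0.01% Triton X-100 ran ≥1 h before IC50 determination.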

| SMILES | IC50 [1] [nM] | IC50 [2] |
| --- | --- | --- |
| COC(=O)N1c2ccc(-c3cnn(C4CCNCC4)c3)c(Oc3cc(F)cc(F)c3)c2CC[C@@H]1C [I-182, (S)-methyl 5-(3,5-difluorophenoxy)-2-methyl-6-(1-(piperidin-4-yl)-1H-pyrazol-4-yl)-3,4-dihydroquinoline-1(2H)-carboxylate] | < 500 | 100 to 1000 nM |
| C[C@H]1CCc2c(ccc(-n3cc(N4CCOCC4)cn3)c2Oc2ccccc2)N1C(=O)C1CC1 [I-338, (S)-cyclopropyl(2-methyl-6-(4-morpholino-1H-pyrazol-1-yl)-5-phenoxy-3,4-dihydroquinolin-1(2H)-yl)methanone] | 500 to 1000 | 1000 to 10000 nM |
| COC(=O)N1c2ccc(C3CC3)c(Oc3ccccc3)c2CC[C@@H]1C [I-244, (S)-methyl 6-cyclopropyl-2-methyl-5-phenoxy-3,4-dihydroquinoline-1(2H)-carboxylate] | > 1000 | ≥ 10000 nM |
| C[C@H]1CCc2c(ccc(-n3nccn3)c2OC2CCC2)N1C(=O)C1CC1 [I-326, (S)-(5-cyclobutoxy-2-methyl-6-(2H-1,2,3-triazol-2-yl)-3,4-dihydroquinolin-1(2H)-yl)(cyclopropyl)methanone] | > 1000 | ≥ 10000 nM |
| C[C@H]1CCc2c(ccc(-c3cnn(C4CCCS(=O)(=O)C4)c3)c2OC2CCC2)N1C(=O)C1CC1 (stereo partly drawn) [I-508] | < 500 | 100 to 1000 nM |
| COC(=O)N1c2ccc(-c3cnn(C4CCN(C)CC4OC)c3)c(OC3CCC3)c2CC[C@@H]1C (stereo partly drawn) [I-292, (2S)-methyl 5-cyclobutoxy-6-(1-(3-methoxy-1-methylpiperidin-4-yl)-1H-pyrazol-4-yl)-2-methyl-3,4-dihydroquinoline-1 (2H)-carboxylate] | < 500 | 100 to 1000 nM |
| C[C@H]1CCc2c(ccc(-c3cn(C4CCNCC4)nn3)c2OC2CCC2)N1C(=O)C1CC1 [I-310, (S)-(5-cyclobutoxy-2-methyl-6-(1-(piperidin-4-yl)-1H-1,2,3-triazol-4-yl)-3,4-dihydroquinolin-1(2H)-yl)(cyclopropyl)methanone] | < 500 | 100 to 1000 nM |
| C[C@H]1CCc2c(ccc(-c3ccn(C4CCNCC4)n3)c2OC2CCC2)N1C(=O)C1CC1 [I-305, (S)-(5-cyclobutoxy-2-methyl-6-(1-(piperidin-4-yl)-1H-pyrazol-3-yl)-3,4-dihydroquinolin-1 (2H)-yl)(cyclopropyl)methanone] | < 500 | 1000 to 10000 nM |
| COC(=O)N1c2ccc(C#N)c(Oc3ccccc3)c2CC[C@@H]1C [I-344, (S)-methyl 6-cyano-2-methyl-5-phenoxy-3,4-dihydroquinoline-1(2H)-carboxylate] | > 1000 | ≥ 10000 nM |
| COC(=O)N1c2ccc(-c3cnn(C4CC5CN(C)CC5C4)c3)c(OC3CCC3)c2CC[C@@H]1C (stereo partly drawn) [I-248, (2S)-methyl 5-cyclobutoxy-2-methyl-6-(1-(2-methyl-octahydrocyclopenta[c]pyrrol-5-yl)-1H-pyrazol-4-yl)-3,4-dihydroquinoline-1(2H)-carboxylate] | < 500 | 100 to 1000 nM |
| C[C@H]1CCc2c(ccc(-c3cn(C)nn3)c2Oc2ccc(F)c(F)c2)N1C(=O)C1CC1 [I-319, (S)-cyclopropyl(5-(3,4-difluorophenoxy)-2-methyl-6-(1-methyl-1H-1,2,3-triazol-4-yl)-3,4-dihydroquinolin-1(2H)-yl)methanone] | < 500 | 1000 to 10000 nM |
| C#Cc1ccc2c(c1Oc1ccccc1)CC[C@H](C)N2C(=O)C1CC1 [I-345, (S)-cyclopropyl(6-ethynyl-2-methyl-5-phenoxy-3,4-dihydroquinolin-1(2H)-yl)methanone] | > 1000 | ≥ 10000 nM |
| C[C@H]1CCc2c(ccc(-c3cnn(C4CNC4)c3)c2Oc2ccccc2)N1C(=O)C1CC1 [I-175, (S)-(6-(1-(azetidin-3-yl)-1H-pyrazol-4-yl)-2-methyl-5-phenoxy-3,4-dihydroquinolin-1(2H)-yl)(cyclopropyl)methanone] | < 500 | 100 to 1000 nM |
| C[C@H]1CCc2c(ccc(-c3cnn(C4CCNCC4)c3)c2Oc2ccc(F)c(F)c2)N1C(=O)C1CC1 [I-172, (S)-cyclopropyl(5-(3,4-difluorophenoxy)-2-methyl-6-(1-(piperidin-4-yl)-1H-pyrazol-4-yl)-3,4-dihydroquinolin-1(2H)-yl)methanone] | < 500 | 100 to 1000 nM |
| C[C@H]1CCc2c(ccc(-c3c[nH]nn3)c2OC2CCC2)N1C(=O)C1CC1 [I-128, (S)-(5-cyclobutoxy-2-methyl-6-(1H-1,2,3-triazol-4-yl)-3,4-dihydroquinolin-1(2H)-yl)(cyclopropyl)methanone] | 500 to 1000 | 100 to 1000 nM |
| C[C@H]1CCc2c(ccc(-c3cnn(C4CNC4)c3)c2Oc2cccc(F)c2)N1C(=O)C1CC1 [I-173, (S)-(6-(1-(azetidin-3-yl)-1H-pyrazol-4-yl)-5-(3-fluorophenoxy)-2-methyl-3,4-dihydroquinolin-1(2H)-yl)(cyclopropyl)methanone] | < 500 | 100 to 1000 nM |
| COC(=O)N1c2ccc(-c3cnn(C4CNC4)c3)c(Oc3cc(F)cc(F)c3)c2CC[C@@H]1C [I-180, (S)-methyl 6-(1-(azetidin-3-yl)-1H-pyrazol-4-yl)-5-(3,5-difluorophenoxy)-2-methyl-3,4-dihydroquinoline-1(2H)-carboxylate] | < 500 | 100 to 1000 nM |
| COC(=O)N1c2ccc(-c3cnn(C4CCNCC4OC)c3)c(Oc3ccc(F)cc3)c2CC[C@@H]1C (stereo partly drawn) [I-291, (2S)-methyl 5-(4-fluorophenoxy)-6-(1-(3-methoxypiperidin-4-yl)-1H-pyrazol-4-yl)-2-methyl-3,4-dihydroquinoline-1(2H)-carboxylate] | < 500 | 100 to 1000 nM |
| C[C@H]1CCc2c(ccc(-n3cc(N4CCNCC4)cn3)c2Oc2ccccc2)N1C(=O)C1CC1 [I-337, (S)-cyclopropyl(2-methyl-5-phenoxy-6-(4-(piperazin-1-yl)-1H-pyrazol-1-yl)-3,4-dihydroquinolin-1(2H)-yl)methanone] | > 1000 | 1000 to 10000 nM |
| C[C@H]1CCc2c(ccc(-c3cnn(C4CCNCC4)c3)c2Oc2ccccn2)N1C(=O)C1CC1 [I-95, (S)-cyclopropyl(2-methyl-6-(1-(piperidin-4-yl)-1H-pyrazol-4-yl)-5-(pyridin-2-yloxy)-3,4-dihydroquinolin-1(2H)-yl)methanone] | < 500 | 1000 to 10000 nM |
| C[C@H]1CCc2c(ccc(-c3cnn(C4CCNCC4)n3)c2OC2CCC2)N1C(=O)C1CC1 [I-309, (S)-(5-cyclobutoxy-2-methyl-6-(2-(piperidin-4-yl)-2H-1,2,3-triazol-4-yl)-3,4-dihydroquinolin-1(2H)-yl)(cyclopropyl)methanone] | < 500 | 1000 to 10000 nM |
| COC(=O)N1c2ccc(-c3cnn(C4CNC4)c3)c(Oc3cccc(Cl)c3)c2CC[C@@H]1C [I-177, (S)-methyl 6-(1-(azetidin-3-yl)-1H-pyrazol-4-yl)-5-(3-chlorophenoxy)-2-methyl-3,4-dihydroquinoline-1(2H)-carboxylate] | < 500 | 100 to 1000 nM |
| C[C@H]1CCc2c(ccc(C#N)c2Oc2ccccc2)N1C(=O)C1CC1 [I-343, (S)-1-(cyclopropanecarbonyl)-2-methyl-5-phenoxy-1,2,3,4-tetrahydroquinoline-6-carbonitrile] | < 500 | 100 to 1000 nM and ≥ 10000 nM |
| CC(=O)N1c2c(F)c(F)c(-c3cnn(C4CC4)c3)c(OC3CCC3)c2CC[C@@H]1C [I-75, (S)-1-(5-cyclobutoxy-6-(1-cyclopropyl-1H-pyrazol-4-yl)-7,8-difluoro-2-methyl-3,4-dihydroquinolin-1 (2H)-yl)ethanone] | > 1000 | ≥ 10000 nM |
| COc1cccc(Oc2c(-c3cnn(C4CCNCC4)c3)cc(F)c3c2CC[C@H](C)N3C(=O)C2CC2)c1 [I-207, (S)-cyclopropyl(8-fluoro-5-(3-methoxyphenoxy)-2-methyl-6-(1-(piperidin-4-yl)-1H-pyrazol-4-yl)-3,4-dihydroquinolin-1(2H)-yl)methanone] | < 500 | 100 to 1000 nM |
| C[C@H]1CCc2c(ccc(-c3cnn(C4CCNCC4)c3)c2Oc2cc(F)ccc2F)N1C(=O)C1CC1 [I-274, (S)-cyclopropyl(5-(2,5-difluorophenoxy)-2-methyl-6-(1-(piperidin-4-yl)-1H-pyrazol-4-yl)-3,4-dihydroquinolin-1 (2H)-yl)methanone] | < 500 | 100 to 1000 nM |
| CC#Cc1ccc2c(c1Oc1ccccc1)CC[C@H](C)N2C(=O)C1CC1 [I-347, (S)-cyclopropyl(2-methyl-5-phenoxy-6-(prop-1-ynyl)-3,4-dihydroquinolin-1(2H)-yl)methanone] | > 1000 | ≥ 10000 nM |
| COC(=O)N1c2c(F)cc(-c3cnn(C4CCNCC4)c3)c(Oc3ccccc3)c2CC[C@@H]1C [I-205, (S)-methyl 8-fluoro-2-methyl-5-phenoxy-6-(1-(piperidin-4-yl)-1H-pyrazol-4-yl)-3,4-dihydroquinoline-1(2H)-carboxylate] | < 500 | 100 to 1000 nM |
| C[C@H]1CCc2c(ccc(-c3cnn(C4CNC4)c3)c2Oc2ccc(F)c(F)c2)N1C(=O)C1CC1 [I-174, (S)-(6-(1-(azetidin-3-yl)-1H-pyrazol-4-yl)-5-(3,4-difluorophenoxy)-2-methyl-3,4-dihydroquinolin-1(2H)-yl)(cyclopropyl)methanone] | < 500 | 100 to 1000 nM |
| CC(=O)N1c2c(F)c(F)c(-c3cnn(C4CCNCC4)c3)c(OC3CCC3)c2CC[C@@H]1C [I-106, (S)-1-(5-cyclobutoxy-7,8-difluoro-2-methyl-6-(1-(piperidin-4-yl)-1H-pyrazol-4-yl)-3,4-dihydroquinolin-1 (2H)-yl)ethanone] | > 1000 | 1000 to 10000 nM |
